Laboratory results published in patent US20220362340A1, “COMPOSITIONS AND USES THEREOF FOR TREATING IRRADIATION-INDUCED INTESTINAL DAMAGE” (UNIVERSITY OF PITTSBURGH-OF THE COMMONWEALTH SYSTEM OF …, priority 2019, published 2022).
Entries after “also recorded” stand apart in the source; their conditions may differ.

B1: G-CSF: Granulocyte colony-stimulating factor polypeptide, irradiation mitigator (protein, listed as Homo sapiens)
chain: MAGPATQSPMKLMALQLLLWHSALWTVQEATPLGPASSLPQSFLLKCLEQVRKIQGDGAALQEKLVSECATYKLCHPEELVLLGHSLGIPWAPLSSCPSQALQLAGCLSQLHSGLFLYQGLLQALEGISPELGPTLDTLQLDVADFATTIWQQMEELGMAPALQPTQGAMPAFASAFQRRAGGVLVASHLQSFLEVSYRVLRHLAQP

How the values were obtained:
[1] = system: C57BL/6NTac mice irradiated to 9.25 Gy total body irradiation; assay: Survival after 9.25 Gy total body irradiation (TBI); assay type: in vivo, mouse; conditions: 9.25 Gy TBI; for 30 days survival: JP4-039 20 mg/kg I.M., G-CSF 4 mg/kg I.P. at 24 h, n=10, irradiated controls 20%; for survival at 30 days after TBI: treatment 24 hrs later, FIG. 7, irradiated control 10%
Description: Mice and Animal Care. Female C57BL/6NTac (Taconic Biosciences, Wayne, Pa.) and C57BL/6 lgr5+ green fluorescent protein tagged (5-6) lgr5+ mice were housed 5 per cage and fed standard laboratory chow and deionized drinking water according to University of Pittsburgh IACUC regulations.
Irradiation. Total body irradiation was delivered with a cesium-137 Gamma Cell irradiator with filters removed at a dose rate of […], beam flatness, homogeneity, and analysis of spectrum of gamma ray precise dosimetry were carried out. Mice were irradiated in a plexiglass pie plate that contains 12 sections. Five mice were placed in each pie plate. The mice were not placed in adjacent sections, but had one or two empty sections between mice so that the mice would not shield the other mice in the pie plate. Thermoluminescent (TLD) readings according to published methods. [Steinman J, et al., Improved total- body irradiation survival by delivery of two radiation mitigators that target distinct cell death pathways. Radiat Res 189(1): 68-83, 2018.]
Dose Response Curve of Number of Gavaged Lactobacillus-reuteri, or E. coli Producing IL-22 or IFN-β. Mice were irradiated to 9.25 Gy TBI, which took 13-14 minutes, and were then 24 h later gavaged with 100 μL saline solution containing Lactobacillus reuteri-IL-22, or E. coli-IL-22, or at 48 hrs post irradiation E. coli-IFN-β (based on the known time of requirement for IFN-β by lgr5+ cells at this time). All groups of mice received 100 μL saline, which contained varying numbers of bacteria ranging from 10^9, 10^8, 10^7, to 10^6 bacteria (n=10 animals per group).
Administration of Small Molecule Radiation Mitigator, IL-22 Protein, L. reuteri Lacking IL-22, or Gavaged Fecal Microbiome. As a control for probiotic mitigators, the GS-nitroxide, JP4-039 [Rwigema J -CM, et al., Two strategies for the development of mitochondrial-targeted small molecule radiation damage mitigators. Int J Radiat Oncol Biol Phys 80(3): 860-868, 2011], was prepared and administered according to published methods, I.M. at 20 mg/kg in 50 μL of 30% cyclodextrin aqueous [Epperly M W, et al., Evaluations of different formulations and routes for the delivery of the ionizing radiation mitigation GS-nitroxide (JP4-039). In Vivo 32: 1009-1023, 2018]. Cyclodextrin alone has no radiomitigative effect. […]
10^9 L. reuteri lacking IL-22 was administered in 100 μl/saline. A similar number of bacteria from feces obtained from 30-day survivors of 9.25 Gy TBI was gavaged. Fecal microbiome transplant (FMT) was carried out by delivery by gavage in 100 μL saline; 10^9 bacteria from the feces of 30-day survivors of 9.25 Gy TBI of C57BL/6 female mice.
C57BL/6NTac mice were irradiated to 9.25 Gy total body irradiation and gavaged with Lactobacillus reuteri-IL-22 or Lactobacillus reuteri harboring the empty vector control. […]
To determine whether successful radiation mitigation correlated with changes in the intestinal microbiome, groups of mice received 9.25 Gy total body irradiation (TBI) and subgroups treated with the small molecule radiation mitigator, JP4-039 (20 mg/kg in 50 microliters of 30% 2-hydroxypropyl-β-cyclodextrin I.M.), G-CSF (4 mg/kg I.P.), or both mitigators at 24 h after TBI. Fecal pellets were analyzed pre-irradiation, and at days 1, 3, 5, 7, 10, 14, 21, and 30 after irradiation. […]

IL-22 = assay: Intestinal level of IL-22 after TBI; assay type: in vivo, mouse; conditions: 9.25 Gy TBI; treatment at 24 h; FIG. 17A

Row | Molecule | 30 days survival [1] [%] | survival at 30 days after TBI [1] [%] | intestinal level of IL-22 after TBI (IL-22) | survival compared to irradiation only mice ([1]; treatment 24 hr after, IL-22 protein 0.1 mg/kg I.M., FIG. 9)
1 | CC(C)C[C@@H](/C=C/CC(=O)NC1CC(C)(C)N([O])C(C)(C)C1)NC(=O)OC(C)(C)C [JP4-039] | 50 | 70 | restored IL-22 levels | –
2 | IL-22 protein: recombinant IL-22 protein injected as control | – | 40 | – | significantly increased survival; also recorded: significantly improved survival
3 | B1 | 70 | – | – | –
